Measurements: publication PMC10760875, “Synthesis of alnustone-like diarylpentanoids via a 4 + 1 strategy and assessment of their potential anticancer activity” (Turkish Journal of Chemistry, 2023)
Like-named read-outs stand apart in the source and are kept apart here.

Columns and labels:
[1] = system: U87-MG cells (human glioblastoma); assay: MTT cytotoxicity assay, U87-MG; assay type: cell-based; details: for IC50: Homo sapiens, U-87 MG, MTT, 48 h, read-out: IC50 against U87-MG; for SI, U87-MG cells: SI = IC50 normal cells (HPAEpiC)/IC50 U87-MG
Method: (§1) GBM (U87-MG), breast cancer (MCF-7), prostate carcinoma (PC-3), and lung epithelium (HPAEpiC) cell lines were used to assess the cytotoxic action potential of compounds 5a–5l. The cells were grown in a single layer in flasks in appropriate medium containing 10% fetal bovine serum (FBS), 1% penicillin/streptomycin, and 1% L-glutamine at 37 °C and 5% CO2 to maintain the pH balance. Cells that had reached 70%–80% confluence were used in the experiments.
(§2) The 3-(4,5-dimethylthiazol-2-yl)-2,5-diphenyltetrazolium bromide (MTT) method is a widely used colorimetric method for the quantitative determination of cell viability. It is based on the reduction of the tetrazolium ring of the yellow dye MTT by living cells. As a result of the reduction, the tetrazolium ring breaks down to form a dark blue-violet formazan compound. Cell viability is then determined spectrophotometrically. The viability of untreated cells is assumed to be 100% and the viability of treated cells is determined as a percentage (%) according to those cells.
(§3) To each 96-well plate, 2 × 10^4 cells were seeded and treated with 6 different concentrations (3.125, 6.25, 12.5, 25, 50, and 100 mg/L) of the 12 tested compounds, and then the plates were incubated in a CO2 oven at 37 °C for 48 h. At the end of the incubation, 10 μL of the MTT mixture was added to each well using a pipette, which was then gently mixed for 1 min on a circular mixer. The cells were incubated in a CO2 oven at 37 °C for 3–4 h. The formazan that formed as a result of the incubation was seen as dark crystals at the bottoms of the wells. The culture medium was carefully aspirated from each well without dispersing the cell layer, and then 100 μL of dimethyl sulfoxide (DMSO) was added to each well and gently stirred on an orbital stirrer to dissolve the formazan crystals. Each sample was read at a wavelength of 570 nm in a spectrophotometer and absorbance values were obtained. A wavelength of 630 nm was used as the reference wavelength.
(§4) Percent viability and cytotoxicity values for each dose administered were calculated according to the following formulas:
(§5) • % Viability = (absorbance of the sample/absorbance of the control) × 100 • % Cytotoxicity = [1 – (absorbance of the sample/absorbance of the control)] × 100
(§6) The IC50 dose, as the concentration of inhibitor that caused a 50% decrease in cell viability, was calculated using Excel regression analysis.
(§7) Human GBM (U87-MG), breast cancer (MCF-7), prostate cancer (PC-3), and pulmonary alveolar epithelial cells (HPAEpiC) cell lines from the American Type Culture Collection (ATCC) were used for the cytotoxicity testing of compounds 5a–5l. The cells were grown as a single layer in appropriate medium containing 10% FBS, 1% penicillin/streptomycin, and 1% L-glutamine at 37 °C and 5% CO2 atmosphere.
(§8) The cytotoxicity analyses of all of the compounds were investigated by determining cell viability based on the colorimetric MTT assay, which was conducted according to the manufacturer’s guide. First, […] were seeded in a 96-well plate and then incubated at 37 °C in a 5% CO2 environment for 24 h. The medium was aspirated the following day, and […] of each concentration of the 12 tested compounds (3.125, 6.25, 12.5, 25, 50, and 100 mg/L) were separately added to each well. The plates were then incubated for 48 h at 37 °C with 5% CO2. Next, 10 μL of MTT solution was added to each well and the plate was incubated for 4 h. The culture medium was aspirated from the wells without dispersing the cell layer and then 100 μL of DMSO was added to each well and stirred on an orbital stirrer to dissolve the formazan crystals. Each sample was read at a wavelength of 570 nm in a spectrophotometer and absorbance values were obtained. A wavelength of 630 nm was used as the reference. Cell viability was expressed as a percentage compared to the untreated cells. All experiments were performed in triplicate.

[2] = system: MCF-7 cells (breast cancer); assay: MTT cytotoxicity assay, MCF-7; assay type: cell-based, human; details: for IC50: MTT, 48 h, read-out: IC50 against MCF-7; for SI, MCF-7 cells: SI = IC50 normal cells (HPAEpiC)/IC50 MCF-7
Method: as §1, §2, §3, §4, §5, §6, §7, §8

[3] = system: PC-3 cells (prostate cancer); assay: MTT cytotoxicity assay, PC-3; assay type: cell-based, human; details: for IC50: MTT, 48 h, read-out: IC50 against PC-3; for SI, PC-3 cells: SI = IC50 normal cells (HPAEpiC)/IC50 PC-3
Method: as §1, §2, §3, §4, §5, §6, §7, §8

[4] = system: HPAEpiC cells (pulmonary alveolar epithelial cells); assay: MTT cytotoxicity assay, healthy HPAEpiC; assay type: cell-based; details: Homo sapiens, Epithelial cell, 48 h, read-out: IC50 against HPAEpiC (healthy cells)
Method: as §1, §2, §3, §4, §5, §6, §7, §8

[5] = system: MCF-7 cells; assay: Hoechst 33258 nuclear staining, MCF-7; assay type: cell-based, human; details: IC50 concentration, 48 h
Method: (§9) Cell morphological characteristics were examined via the fluorescent Hoechst 33258 staining approach. […] The nuclei in the untreated group were stained a less brilliant blue and the color was uniform. After 48 h of treatment at the IC50 concentrations of compounds 5a and 5i, the blue emission light in the apoptotic cells was considerably brighter than in the control cells. Many compound-treated cells also had condensed chromatin, and some had the shape of apoptotic bodies, which is one of the basic features of apoptotic cells (Figures 5 and 6). In line with these findings, it was previously reported that the diarylpentanoid BP-M345 exerted potential as an anticancer drug, showing its antiproliferative activity by preventing mitosis through microtubule disruption and inducing cancer cell death. Likewise, diarylpentanoid derivatives have led to intrinsic apoptosis in cancer cells by upregulating proapoptotic proteins such as Bad and Bax and downregulating prosurvival proteins such as Bcl-2 and Bcl-xL [33]. […]
(§10) Hoechst 33258 staining was used to assess significant morphological changes in the nuclear chromatin of the cells. […] Thereafter, the cells were observed using a Leica DMIRB fluorescence microscope (Leica Microsystems, Wetzlar, Germany). […]

[6] = system: U87-MG cells; assay: Hoechst 33258 nuclear staining, U87-MG; assay type: cell-based, human; details: IC50 concentration, 48 h
Method: as §9, §10

| SMILES | IC50 [1] | SI, U87-MG cells [1] | IC50 ([2]; Homo sapiens, MCF7, 48 h) | IC50 [2] | SI, MCF-7 cells [2] | IC50 ([3]; Homo sapiens, PC-3, 48 h) | SI, PC-3 cells [3] | IC50 [4] | melting point | IC50 [3] | Nuclear morphology by Hoechst 33258 staining, MCF-7 [5] | Nuclear morphology by Hoechst 33258 staining, U87-MG [6] |
| --- | --- | --- | --- | --- | --- | --- | --- | --- | --- | --- | --- | --- |
| COc1ccc(/C=C/C(=O)CCc2ccccc2)cc1O [Compound 5e, (E)-1-(3-hydroxy-4-methoxyphenyl)-5-phenylpent-1-en-3-one] | 133 µM | 0.20 | < 30 µM | 21.8 µM | 1.21 | 95.8 µM | 0.28 | 26.4 µM | 94 to 95 °C |  |  |  |
| COc1cc(/C=C/C(=O)CCc2ccccc2)ccc1O [Compound 5d, (E)-1-(4-hydroxy-3-methoxyphenyl)-5-phenylpent-1-en-3-one] | 31.9 µM | 0.45 | < 30 µM | 27.8 µM | 0.52 | < 30 µM | 0.69 | 14.4 µM | 89 to 90 °C | 20.9 µM |  |  |
| COc1cc(/C=C/C(=O)CCc2ccc(O)cc2)ccc1O [Compound 5j, (E)-1-(4-hydroxy-3-methoxyphenyl)-5-(4-hydroxyphenyl)pent-1-en-3-one] | 75.7 µM | 1.23 | 35 µM |  | 2.67 | 32.2 µM | 2.90 | 93.4 µM | 131 to 132 °C |  |  |  |
| O=C(/C=C/c1ccccc1)CCc1ccc(O)cc1 [Compound 5g, (E)-5-(4-hydroxyphenyl)-1-phenylpent-1-en-3-one] | 128 µM | 0.17 | < 30 µM | 16.2 µM | 1.31 | 291 µM | 0.07 | 21.1 µM | 96 to 97 °C |  |  |  |
| O=C(/C=C/c1ccc(O)c(O)c1)CCc1ccc(O)cc1 [Compound 5l, (E)-1-(3,4-dihydroxyphenyl)-5-(4-hydroxyphenyl)pent-1-en-3-one] | 287 µM | 1.38 | 317 µM |  | 1.25 | 185 µM | 2.14 | 396 µM | 202 to 203 °C |  |  |  |
| COc1ccc(/C=C/C(=O)CCc2ccccc2)cc1 [Compound 5c, (E)-1-(4-methoxyphenyl)-5-phenylpent-1-en-3-one] | 213 µM | 0.42 | 50.2 µM |  | 1.84 | 439 µM | 0.21 | 92.3 µM | 95 to 96 °C |  |  |  |
| O=C(/C=C/c1ccccc1)CCc1ccccc1 [Compound 5a, (E)-1,5-diphenylpent-1-en-3-one] | 107 µM | 0.79 |  |  | 7.45 | 50.1 µM | 1.69 | 84.8 µM |  |  | apoptotic cells with fragmented nuclei | apoptotic cells with fragmented nuclei |
| COc1ccc(/C=C/C(=O)CCc2ccc(O)cc2)cc1O [Compound 5k, (E)-1-(3-hydroxy-4-methoxyphenyl)-5-(4-hydroxyphenyl)pent-1-en-3-one] | 52.6 µM | 1.32 | 203 µM |  | 0.34 | 45.1 µM | 1.54 | 69.3 µM | 130 to 131 °C |  |  |  |
| O=C(/C=C/c1ccc(O)c(O)c1)CCc1ccccc1 [Compound 5f, (E)-1-(3,4-dihydroxyphenyl)-5-phenylpent-1-en-3-one] | 33.4 µM | 1.29 | 544 µM |  | 0.08 | 97.5 µM | 0.44 | 43.1 µM |  |  |  |  |
| O=C(/C=C/c1ccc(O)cc1)CCc1ccc(O)cc1 [Compound 5h, (E) 1,5-bis(4-hydroxyphenyl)pent-1-en-3-one] | 358 µM | 0.14 | < 30 µM | 26.7 µM | 1.92 | 437 µM | 0.12 | 51.4 µM | 146 to 147 °C |  |  |  |
| O=C(/C=C/c1ccc(O)cc1)CCc1ccccc1 [Compound 5b, (E)-1-(4-hydroxyphenyl)-5-phenylpent-1-en-3-one] | 70.9 µM | 0.08 |  |  | 0.58 | < 30 µM | 0.25 | 5.51 µM | 136 to 137 °C | 22 µM |  |  |
| COc1ccc(/C=C/C(=O)CCc2ccc(O)cc2)cc1 [Compound 5i, (E)-5-(4-hydroxyphenyl)-1-(4-methoxyphenyl)pent-1-en-3-one] | 233 µM | 0.06 |  |  | 2.52 |  | 1.53 | 14.9 µM |  |  | apoptotic cells with fragmented nuclei | apoptotic cells with fragmented nuclei |
| COc1cccc2c1C(=O)c1c(O)c3c(c(O)c1C2=O)C[C@@](O)(C(=O)CO)C[C@@H]3O[C@H]1C[C@H](N)[C@H](O)[C@H](C)O1 [DOX control (+), doxorubicin, reference compound] | 8.95 µM | 7.20 | 14.7 µM |  | 4.38 | 6.76 µM | 9.53 | 64.4 µM |  |  |  |  |
